In article PMC5612938, “A multiple biomarker assay for quality assessment of botanical drugs using a versatile microfluidic chip” (Scientific Reports, 2017):

Assays:
[1] = target: T1, Thrombin (from human plasma) (Homo sapiens, UniProt P00734); assay: on-chip affinity screening, binding degree by LC-MS peak area vs protein-free control (thrombin); details: for thrombin; [(As − Ac)/As] × 100, sample vs protein-free control, EIC peak area
T1 construct: Thrombin (from human plasma); purchased Sigma-Aldrich; host or cells: human plasma
Excerpt: (§1) In addition to quality assessment, the microfluidic chip can also function as “affinity chromatography” to identify bioactive constituents from botanical drugs in a convenient and efficient manner. After the bioassay, the bound phytochemicals were dissociated from the enzymes and accurately identified by LC-MS. The material used for the chambers in microfluidic system, polydimethylsiloxane (PDMS), is apt to adsorb small molecules nonspecifically, thus a protein-free control was applied to reflect the degree of nonspecific binding of compounds to the chip. Peak areas were obtained from the extracted ion chromatography (EIC) in an ion-trap mass spectrometry (IT-MS), and binding degree (binding degree % = [(As − Ac)/As] × 100, where As and Ac were the peak area in the sample and control, respectively) was calculated to indicate binding specificity. […] All these peaks were unambiguously confirmed via comparisons with chemical standards in terms of retention time and mass spectra (Table 2), and five thrombin inhibitors (danshensu, salvianolic acid B, salvianolic acid C, rosmarinic acid and ginsenoside Rg1) and six ACE inhibitors (astragaloside IV, ononin, formononetin, calycosin, danshensu and salvianolic acid B) were preliminarily identified. […] Enzyme inhibition assays of these hit compounds were then performed to verify the screening results. […] Compounds showing an inhibition rate over 70% were subjected to IC50 measurement.
(§2) MBs (10 mg/mL) were diluted 10 times in PB or Tris-HCl buffer, and 10 μL of the diluted MBs (1 mg/mL) were injected into one channel of the chip using a syringe infusion pump (Harvard Apparatus, USA) and retained by an external magnet. Then, 10 μL of thrombin or ACE solution was added and incubated with MBs for two hours at room temperature to form enzyme-MB complexes. The magnet was manually controlled to move MBs back and forth to enhance the ratio of reaction. Subsequently, MBs were washed twice in assay buffer and magnetically transferred to the other channel through the fluidic bridge, whose opening and closing was controlled by a pneumatic valve. Next, 10 μL of sample solutions of tested drug and 10 μL of enzymatic substrate were sequentially infused to the channel by the pump and incubated with the enzyme. When the enzymatic reaction was finished, the MBs were retained in the channel, and air was injected into the channel from the inlet using a syringe to push all the reacted solution to a 384-well plate. The absorbance of the solution was then monitored at 405 nm (for S-2238) or 340 nm (for FAPGG) using an Infinite F200 spectrophotometer (Tecan, Männedorf, Switzerland). Moreover, after detection, the reaction channel was washed three times by assay buffer to remove unbound constituents. 20 μL of 80% aqueous methanol was then injected and incubated with MBs for one hour to dissociate the bound constituents. The resulting solutions of replicates were combined, evaporated by a centrifugal evaporator, reconstituted in 80% aqueous methanol, centrifuged at 10,000 rpm for 10 min, and analyzed by LC-MS for chemical identification.
An Agilent 1100 HPLC system (Agilent Technologies, Waldbronn, Germany) coupled with an LCQ Deca XP^plus IT-MS (Thermo Finnigan, San Jose, CA, USA) equipped with an electrospray ionization (ESI) interface was employed for structure elucidation of the bounded constituents. […]

ACE (from rabbit lung) = target: T2, ACE (from rabbit lung) (Oryctolagus cuniculus, UniProt P12822); assay: on-chip affinity screening, binding degree by LC-MS peak area vs protein-free control (ACE); details: for ACE; [(As − Ac)/As] × 100, sample vs protein-free control, EIC peak area
T2 construct: ACE (from rabbit lung); purchased Sigma-Aldrich; host or cells: rabbit lung
T2 sequence (P12822 34-1310): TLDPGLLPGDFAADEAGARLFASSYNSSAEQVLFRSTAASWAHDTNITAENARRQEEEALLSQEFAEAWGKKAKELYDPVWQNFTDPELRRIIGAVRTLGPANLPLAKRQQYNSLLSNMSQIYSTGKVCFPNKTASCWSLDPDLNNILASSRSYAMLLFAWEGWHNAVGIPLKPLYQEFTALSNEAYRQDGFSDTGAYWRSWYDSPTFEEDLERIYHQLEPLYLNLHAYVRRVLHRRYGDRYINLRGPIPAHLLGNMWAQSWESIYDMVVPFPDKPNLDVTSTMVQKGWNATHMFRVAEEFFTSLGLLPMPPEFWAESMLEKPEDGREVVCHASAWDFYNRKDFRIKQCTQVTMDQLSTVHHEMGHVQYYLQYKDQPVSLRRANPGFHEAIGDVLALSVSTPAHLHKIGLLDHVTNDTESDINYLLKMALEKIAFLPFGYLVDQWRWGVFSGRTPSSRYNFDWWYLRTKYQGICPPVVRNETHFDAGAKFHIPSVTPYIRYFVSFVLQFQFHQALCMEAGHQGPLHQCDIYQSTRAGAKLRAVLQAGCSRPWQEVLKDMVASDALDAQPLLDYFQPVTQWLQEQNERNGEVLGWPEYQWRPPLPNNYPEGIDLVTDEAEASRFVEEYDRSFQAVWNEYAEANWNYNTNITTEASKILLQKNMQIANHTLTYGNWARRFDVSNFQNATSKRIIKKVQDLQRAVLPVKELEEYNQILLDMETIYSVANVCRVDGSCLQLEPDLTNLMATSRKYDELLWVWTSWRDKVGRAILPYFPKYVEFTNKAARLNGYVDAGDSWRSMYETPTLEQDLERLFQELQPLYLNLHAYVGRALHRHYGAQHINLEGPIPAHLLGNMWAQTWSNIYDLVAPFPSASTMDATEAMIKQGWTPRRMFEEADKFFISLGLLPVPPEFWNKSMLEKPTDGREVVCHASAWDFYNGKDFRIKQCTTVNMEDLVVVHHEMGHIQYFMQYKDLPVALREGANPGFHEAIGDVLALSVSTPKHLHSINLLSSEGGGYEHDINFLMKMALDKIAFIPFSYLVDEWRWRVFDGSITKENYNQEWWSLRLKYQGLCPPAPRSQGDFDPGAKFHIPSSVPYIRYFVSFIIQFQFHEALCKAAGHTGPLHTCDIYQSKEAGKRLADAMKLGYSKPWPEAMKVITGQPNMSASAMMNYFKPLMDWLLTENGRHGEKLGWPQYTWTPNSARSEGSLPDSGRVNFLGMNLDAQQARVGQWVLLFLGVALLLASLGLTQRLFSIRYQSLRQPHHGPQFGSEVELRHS
Excerpt: as §1, §2
An Agilent 1100 HPLC system (Agilent Technologies, Waldbronn, Germany) coupled with an LCQ Deca XP^plus IT-MS (Thermo Finnigan, San Jose, CA, USA) equipped with an electrospray ionization (ESI) interface was employed for structure elucidation of the bounded constituents. The analysis was performed in negative ionization mode under following operation parameters: scan range m/z 100–1500; capillary voltage −15 V; source voltage −3 kV; capillary temperature 350 °C; sheath gas (N2) 60 arb; auxiliary gas (N2) 20 arb.

`O=C(O)C(O)Cc1ccc(O)c(O)c1` (stereo not shown) [Danshensu] was tested, and the “Binding degree (%)” value [1] was 50.9% and the “Binding degree (%)” value (ACE (from rabbit lung)) was 57.2%.
`O=C(/C=C/c1ccc(O)c2c1[C@H](C(=O)O[C@H](Cc1ccc(O)c(O)c1)C(=O)O)[C@@H](c1ccc(O)c(O)c1)O2)O[C@H](Cc1ccc(O)c(O)c1)C(=O)O` [Salvianolic acid B] was tested, and the “Binding degree (%)” value [1] was 34.9% and the “Binding degree (%)” value (ACE (from rabbit lung)) was 41.3%.
